Earlier results in US20220202803A1, “COMBINATION THERAPIES INCLUDING INHIBITORS OF DIHYDROOROTATE DEHYDROGENASE” (Clear Creek Bio, Inc., priority 2019, published 2022).

Assays:
[1] = tested on: solid tumor malignancies; conditions: administered over a 5-day period followed by a 3-week gap or once per week for three weeks followed by a 1-week gap
[2] = tested on: mouse model of AML; conditions: daily administration of high doses

Structure (SMILES): Cc1c(-c2ccc(-c3ccccc3F)cc2)nc2ccc(F)cc2c1C(=O)O [brequinar, 6-fluoro-2-(2′-fluoro-1,1′ biphenyl-4-yl)-3-methyl-4-quinoline carboxylic acid]
- efficacy in solid tumor malignancies [1]: ineffective
- adverse effects [2]: weight loss, anemia, and thrombocytopenia
